We go through 30 compounds from ChEMBL document CHEMBL2203219, “Discovery and evolution of phenoxypiperidine hydroxyamide dual CCR3/H₁ antagonists. Part II: optimising in vivo clearance” (Bioorg Med Chem Lett, 2012).

Series [1] in a line: in vitro. Particulars: human.
Series [2] can be described thus: in vitro. Particulars: rat, hepatocytes.
Series [3] is described as follows: physchem. The note with it: octanol/water.
Series [4] in a line: in vivo. Particulars: rat, iv.
Series [5] can be described thus: Oral bioavailability in rat. Format: ADME, organism-based. Particulars: in vivo.
Series [6] is described as follows: in vivo. The note with it: rat, iv. The source holds these as a separate data set.
The nature of series [7]: in vivo. The note with it: rat, iv. This is another data set of the same source.
Series [8] is described as follows: Oral bioavailability in dog. Format: ADME, organism-based, Canis lupus familiaris. The note with it: in vivo.
Series [9] can be described thus: in vivo. Particulars: dog.
Series [10] is described as follows: in vivo. The note with it: dog. This is another data set of the same source.
For series [11], the species on record is Rattus norvegicus. The note with it: in vivo, iv.

Usually microsomal CLint stands for the rate of metabolic loss divided by the concentration. A higher microsomal CLint goes with faster metabolism. In general, hepatocyte CLint refers to the capacity of the preparation to metabolise the compound, expressed as a volume cleared per time. A low value points to greater metabolic stability. As usually defined, the logD is lipophilicity at a set pH, counting ionised and neutral species. The low end stands for a more hydrophilic compound, the high end for a more lipophilic compound. By Vd is commonly meant a proportionality between amount in the body and measured concentration, not a real space. A word on the bioavailability: it is dose-corrected exposure relative to a reference, in per cent. A lower bioavailability goes with little systemic uptake. Broadly, the half-life is the time needed for the level to fall by half in the phase considered. Low values mean fast loss, high ones slow loss. Usually clearance stands for the volume of plasma or blood freed of the substance per unit of time. A high value points to efficient removal.

Molecules are shown by their SMILES. Some results are limits rather than exact numbers.

The compound `Cc1cc(Cl)ccc1OC1CCN(C[C@H](O)CNC(=O)c2c[nH]c(=O)c3cc(S(C)(=O)=O)ccc23)CC1` displayed a microsomal CLint in series [1] (liver microsomes) of 14 µL/min/mg. In [2], the intrinsic metabolic clearance (hepatocyte CLint) stood at 7 µL/min/1e6 cells. The compound also displayed a logD in series [3] of 2.4.

`Cc1cc(Cl)ccc1OC1CCN(C[C@H](O)CNC(=O)c2c[nH]c(=O)c3ccc(S(C)(=O)=O)cc23)CC1` gave a microsomal CLint in series [1] (liver microsomes) of 7 µL/min/mg. Moreover, in series [2], the hepatocyte CLint stood at 8 µL/min/1e6 cells.

Turning to `O=C(NC[C@@H](O)CN1CCC(Oc2ccc(Cl)c(Cl)c2)CC1)c1c[nH]c(=O)c2cc(F)ccc12`, the Vd in series [4] was found to be 6.4 L/kg. In series [3], this compound showed a log distribution coefficient (logD) of 3.2.

As for `Cc1cc(Cl)ccc1OC1CCN(C[C@H](O)CNC(=O)c2c[nH]c(=O)c3cc(F)ccc23)CC1`, the microsomal CLint in [1] (liver microsomes) came to 9 µL/min/mg. The hepatocyte CLint in series [2] is < 3 µL/min/1e6 cells.

With `O=C(NC[C@@H](O)CN1CCC(Oc2ccc(Cl)c(Cl)c2)CC1)c1c[nH]c(=O)c2ccc(F)cc12`, the microsomal CLint in series [1] (liver microsomes) was 8 µL/min/mg. For the same compound, the hepatocyte CLint in series [2] is 5 µL/min/1e6 cells. In [3], this compound came in with a logD of 3.9.

Consider `O=C(NC[C@@H](O)CN1CCC(Oc2ccc(Cl)c(Cl)c2)CC1)c1c[nH]c(=O)c2cc(S(=O)(=O)NCCO)ccc12`, for which the hepatocyte CLint in series [2] came out at 5 µL/min/1e6 cells.

For the compound `NS(=O)(=O)c1ccc2c(C(=O)NC[C@@H](O)CN3CCC(Oc4ccc(Cl)c(Cl)c4)CC3)c[nH]c(=O)c2c1`, in series [1] (liver microsomes), the microsomal CLint is < 3 µL/min/mg. For the same compound, the hepatocyte CLint in [2] is < 3 µL/min/1e6 cells.

Regarding `Cc1c(Cl)ccc(OC2CCN(C[C@H](O)CNC(=O)c3c[nH]c(=O)c4ccc(S(C)(=O)=O)cc34)CC2)c1Cl`, in series [1] (liver microsomes), the microsomal CLint was < 3 µL/min/mg. In addition, the hepatocyte CLint in series [2] was < 3 µL/min/1e6 cells. Moreover, the log distribution coefficient (logD) in series [3] stood at 2.8.

Turning to `CNS(=O)(=O)c1ccc2c(C(=O)NC[C@@H](O)CN3CCC(Oc4ccc(Cl)c(Cl)c4)CC3)c[nH]c(=O)c2c1`, the microsomal CLint in series [1] (liver microsomes) stood at 14 µL/min/mg. In addition, the hepatocyte CLint in [2] is < 3 µL/min/1e6 cells. In [3], this compound returned a logD of 2.8.

In series [1] (liver microsomes), `O=C(NC[C@@H](O)CN1CCC(Oc2ccc(Cl)c(Cl)c2)CC1)c1c[nH]c(=O)c2cc(S(=O)(=O)NC3CC3)ccc12` showed a microsomal CLint of 21 µL/min/mg. Besides, the hepatocyte CLint in [2] was 6 µL/min/1e6 cells.

With `CN(C)S(=O)(=O)c1ccc2c(C(=O)NC[C@@H](O)CN3CCC(Oc4ccc(Cl)c(Cl)c4)CC3)c[nH]c(=O)c2c1`, the microsomal CLint in series [1] (liver microsomes) turned out to be 86 µL/min/mg. The intrinsic metabolic clearance (hepatocyte CLint) in series [2] stood at 10 µL/min/1e6 cells. The compound further showed a logD in series [3] of 3.1.

In the case of `O=C(NC[C@@H](O)CN1CCC(Oc2ccc(Cl)c(Cl)c2)CC1)c1c[nH]c(=O)c2cc(S(=O)(=O)N3CCC3)ccc12`, in series [1] (microsomes), the microsomal CLint was < 3 µL/min/mg. In [2], this compound returned a hepatocyte CLint of 7 µL/min/1e6 cells.

Turning to `CC1(O)CN(S(=O)(=O)c2ccc3c(C(=O)NC[C@@H](O)CN4CCC(Oc5ccc(Cl)c(Cl)c5)CC4)c[nH]c(=O)c3c2)C1`, the microsomal CLint in series [1] (liver microsomes) was 18 µL/min/mg. The compound also had a hepatocyte CLint in series [2] of 3 µL/min/1e6 cells. The logD in series [3] is 2.5.

In series [1] (liver microsomes), `O=C(NC[C@@H](O)CN1CCC(Oc2ccc(Cl)c(Cl)c2)CC1)c1c[nH]c(=O)c2c(F)cccc12` gave a microsomal CLint of 6 µL/min/mg. In series [2], the hepatocyte CLint is < 3 µL/min/1e6 cells. This compound came in with a logD in series [3] of 3.2.

Consider `Cc1cc(Cl)ccc1OC1CCN(C[C@H](O)CNC(=O)c2c[nH]c(=O)c3c(F)cccc23)CC1`, for which the intrinsic metabolic clearance (microsomal CLint) in [1] (liver microsomes) was 9 µL/min/mg. The compound further returned an intrinsic metabolic clearance (hepatocyte CLint) in series [2] of 7 µL/min/1e6 cells. This compound also returned a logD in [3] of 3.

`O=C(NC[C@@H](O)CN1CCC(Oc2ccc(Cl)c(Cl)c2)CC1)c1c[nH]nc1C(F)(F)F` came in with a bioavailability in series [5] of 36%. Further, in series [6], the half-life is 6 h. Also, in [7], the clearance was 22 mL/min/kg. Further, in series [1] (liver microsomes), the microsomal CLint was < 3 µL/min/mg. Besides, the hepatocyte CLint in series [2] was found to be 3 µL/min/1e6 cells.

As for `Cc1cc(Cl)ccc1OC1CCN(C[C@H](O)CNC(=O)c2c[nH]nc2C(F)(F)F)CC1`, the microsomal CLint in series [1] (microsomes) is < 3 µL/min/mg. In series [2], this compound gave a hepatocyte CLint of 5 µL/min/1e6 cells.

As to `Cc1c(Cl)ccc(OC2CCN(C[C@H](O)CNC(=O)c3c[nH]nc3C(F)(F)F)CC2)c1Cl`, the microsomal CLint in [1] (liver microsomes) was < 3 µL/min/mg. In addition, in series [2], the hepatocyte CLint came to 6 µL/min/1e6 cells.

The compound `O=C(NC[C@@H](O)CN1CCC(Oc2ccc(Cl)c(Cl)c2)CC1)c1c[nH]nc1C1CC1` registered a microsomal CLint in series [1] (liver microsomes) of 9 µL/min/mg. Also, in series [2], the hepatocyte CLint was < 3 µL/min/1e6 cells.

Take `O=C(NC[C@@H](O)CN1CCC(Oc2ccc(Cl)c(Cl)c2)CC1)c1c[nH]c(=O)cc1C(F)(F)F`: the figures for the bioavailability in series [8] and in [5] were 63% and < 10%, respectively. Moreover, in series [1] (liver microsomes), the microsomal CLint is < 3 µL/min/mg. In [2], this compound had a hepatocyte CLint of 4 µL/min/1e6 cells.

Consider `Cc1cc(Cl)ccc1OC1CCN(C[C@H](O)CNC(=O)c2c[nH]c(=O)cc2C(F)(F)F)CC1`, for which, in series [1] (liver microsomes), the microsomal CLint was determined as 3 µL/min/mg. For the same compound, the hepatocyte CLint in [2] is < 3 µL/min/1e6 cells.

On to `Cc1c(Cl)ccc(OC2CCN(C[C@H](O)CNC(=O)c3c[nH]c(=O)cc3C(F)(F)F)CC2)c1Cl`, for which, in series [1] (liver microsomes), the microsomal CLint is 6 µL/min/mg. Moreover, the intrinsic clearance (hepatocyte CLint) in series [2] was found to be 3 µL/min/1e6 cells.

On to `Cn1cc(C(=O)NC[C@@H](O)CN2CCC(Oc3ccc(Cl)c(Cl)c3)CC2)c(C(F)(F)F)cc1=O`, for which the bioavailability turned out to be 81% in series [8] and 53% in series [5]. Moreover, the values for the half-life in series [9] and in series [6] were 10.8 h and 9.7 h, respectively. Besides, the figures for the clearance in [10] and in [7] were 8 mL/min/kg and 9 mL/min/kg, respectively. Besides, the intrinsic clearance (microsomal CLint) in series [1] (microsomes) stood at 5 µL/min/mg. The hepatocyte CLint in series [2] was < 3 µL/min/1e6 cells.

Consider `O=C(NC[C@@H](O)CN1CCC(Oc2ccc(Cl)c(Cl)c2)CC1)c1c[nH]c(=O)c2ccccc12`, for which the bioavailability turned out to be 40% in series [8] and 11% in series [5].

Regarding `NC(=O)c1c(OC2CCN(C[C@H](O)CNC(=O)c3c[nH]c(=O)c4ccccc34)CC2)ccc(Cl)c1Cl`, the bioavailability in series [5] was < 5%. Also, in series [11], the CL was determined as 0.0086 mL/min/kg. Also, the microsomal CLint in series [1] (liver microsomes) came to 18 µL/min/mg. In [2], the intrinsic metabolic clearance (hepatocyte CLint) was 2 µL/min/1e6 cells. In series [3], this compound registered a logD of 1.5.

With `N#Cc1ccc(OC2CCN(C[C@H](O)CNC(=O)c3c[nH]c(=O)c4ccccc34)CC2)cc1`, the microsomal CLint in series [1] (liver microsomes) is 18 µL/min/mg. The same compound registered a hepatocyte CLint in series [2] of 6 µL/min/1e6 cells.

`N#Cc1ccc(OC2CCN(C[C@H](O)CNC(=O)c3c[nH]c(=O)c4ccccc34)CC2)cc1Cl` had an intrinsic clearance (microsomal CLint) in series [1] (liver microsomes) of 22 µL/min/mg. For the same compound, the hepatocyte CLint in [2] stood at 10 µL/min/1e6 cells. Moreover, in series [3], the pH-dependent lipophilicity (logD) worked out at 2.6.

`CS(=O)(=O)c1ccc2c(C(=O)NC[C@@H](O)CN3CCC(Oc4ccc(C#N)c(Cl)c4)CC3)c[nH]c(=O)c2c1` had a logD in [3] of 1.4.

`CS(=O)(=O)c1ccc2c(C(=O)NC[C@@H](O)CN3CCC(Oc4ccc(Cl)c(Cl)c4)CC3)c[nH]c(=O)c2c1` returned a hepatocyte CLint in series [2] of 3 µL/min/1e6 cells.

`Cc1c(Cl)ccc(OC2CCN(C[C@H](O)CNC(=O)c3c[nH]c(=O)c4cc(S(C)(=O)=O)ccc34)CC2)c1Cl` displayed a microsomal CLint in series [1] (liver microsomes) of 13 µL/min/mg. The same compound came in with a hepatocyte CLint in series [2] of 12 µL/min/1e6 cells. Also, the logD in [3] came to 2.8.
